The target of this assay is T1, human chemokine receptor 2 isoform B (Homo sapiens, UniProt P41597).
T1 construct: host or cells: CHOK1-CCR2B-A5 (CHO-K1)
T1 sequence (P41597 1-360 isoform P41597-2): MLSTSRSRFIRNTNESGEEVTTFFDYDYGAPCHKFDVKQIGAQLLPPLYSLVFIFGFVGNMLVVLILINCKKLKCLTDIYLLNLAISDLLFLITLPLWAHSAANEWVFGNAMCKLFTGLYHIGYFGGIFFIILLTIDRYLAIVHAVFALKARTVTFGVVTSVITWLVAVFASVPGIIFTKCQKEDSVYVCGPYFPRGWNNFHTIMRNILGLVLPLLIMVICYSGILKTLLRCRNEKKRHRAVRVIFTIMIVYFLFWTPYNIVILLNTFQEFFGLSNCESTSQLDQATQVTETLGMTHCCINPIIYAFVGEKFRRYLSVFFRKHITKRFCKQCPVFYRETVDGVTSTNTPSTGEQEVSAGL
Kind of assay: Calcium mobilization assay (CHOK1-CCR2B-A5 cells, FLIPR, MCP-1 stimulated). Type of assay: cell-based. The settings on record: Ca mobilisation assay for CCR2, antagonist activity, 50% inhibition of specific calcium increases after 20 nM MCP-1. How it is done:
CHOK1-CCR2B-A5 cells (from Euroscreen) stably overexpressing the human chemokine receptor 2 isoform B were cultured in Nutrient Hams F12 medium supplemented with 5% FBS, 100 U/ml penicillin, 100 μg/ml streptomycin, 400 μg/ml G418 and 5 μg/ml puromycin.
For the assay cells were grown overnight in 384-well black clear flat bottom polystyrene plates (Costar) at 37° C. at 5% CO2. After washing with DMEM, 20 mM Hepes, 2.5 mM probenecid, 0.1% BSA (DMEM assay buffer) cells were loaded with 4 μM Fluo-4 in the same DMEM assay buffer for 2 hours at 30° C. Excess dye was removed and cells were washed with DMEM assay buffer. 384-well compound plates were prepared with DMEM assay buffer/0.5% DMSO with or without various concentrations of test compounds. Usually compounds were tested for agonist and antagonist activity.
Test compounds were added to the assay plate and agonist activity was monitored as fluorescence for 80 seconds with a FLIPR (488 nm excitation; 510-570 nm emission; Molecular Devices). After 20-30 min. of incubation at 30° C., 20 nM MCP-1 (R&D; Roche) was added and fluorescence was monitored again for 80 seconds. Increases in intracellular calcium are reported as maximum fluorescence after agonist exposure minus basal fluorescence before exposure. Antagonist activity is indicated as inhibitor concentration required for 50% inhibition of specific calcium increases.
On to `C[C@H]1C(=O)N2[C@@H](CCC(=O)N3CCC4(CC4)[C@H](O)C3)CC[C@H]2CN1C(=O)Nc1ccc(C(F)(F)F)c(Cl)c1` [Example 43, (3S,6R,8aS)-6-[3-((S)-4-Hydroxy-6-aza-spiro[2.5]oct-6-yl)-3-oxo-propyl]-3-methyl-4-oxo-hexahydro-pyrrolo[1,2-a]pyrazine-2-carboxylic acid (3-chloro-4-trifluoromethyl-phenyl)-amide], for which the IC50 is 0.0205 µM.
To `C[C@H]1C(=O)N2[C@@H](CCCN3CC(F)(F)C(F)(F)C3)CC[C@H]2CN1C(=O)Nc1ccc(Cl)c(Cl)c1` [Example 44, (3S,6S,8aS)-3-Methyl-4-oxo-6-[3-(3,3,4,4-tetrafluoro-pyrrolidin-1-yl)-propyl]-hexahydro-pyrrolo[1,2-a]pyrazine-2-carboxylic acid (3,4-dichloro-phenyl)-amide] belongs 0.473 µM; to `C[C@H]1C(=O)N2[C@@H](CCCN3CCC(F)(F)C3)CC[C@H]2CN1C(=O)Nc1ccc(Cl)c(Cl)c1` [Example 45, (3S,6S,8aS)-6-[3-(3,3-Difluoro-pyrrolidin-1-yl)-propyl]-3-methyl-4-oxo-hexahydro-pyrrolo[1,2-a]pyrazine-2-carboxylic acid (3,4-dichloro-phenyl)-amide], 0.2 µM.
For `C[C@H]1C(=O)N2[C@@H](CCCN3CCC(F)(F)CC3)CC[C@H]2CN1C(=O)Nc1ccc(Cl)c(Cl)c1` [Example 46, (3S,6S,8aS)-6-[3-(4,4-Difluoro-piperidin-1-yl)-propyl]-3-methyl-4-oxo-hexahydro-pyrrolo[1,2-a]pyrazine-2-carboxylic acid (3,4-dichloro-phenyl)-amide], the IC50 amounted to 0.0264 µM.
For the compound `C[C@H]1C(=O)N2[C@@H](CCCN3CCCC(F)(F)C3)CC[C@H]2CN1C(=O)Nc1ccc(Cl)c(Cl)c1` [Example 47, (3S,6S,8aS)-6-[3-(3,3-Difluoro-piperidin-1-yl)-propyl]-3-methyl-4-oxo-hexahydro-pyrrolo[1,2-a]pyrazine-2-carboxylic acid (3,4-dichloro-phenyl)-amide], the IC50 was 0.0674 µM.
To `O=C(Nc1ccc(Cl)c(Cl)c1)N1CCC(=O)N2[C@@H](CCN3CCC4(CC4)[C@H](O)C3)CC[C@H]2C1` [Example 49, (7R,9aS)-7-[2-((S)-4-Hydroxy-6-aza-spiro[2.5]oct-6-yl)-ethyl]-5-oxo-hexahydro-pyrrolo[1,2-a][1,4]diazepine-2-carboxylic acid (3,4-dichloro-phenyl)-amide] belongs 0.144 µM; to `C[C@H]1C(=O)N2[C@@H](CCC(=O)N3CCC4(CC4)[C@H](O)C3)COC[C@H]2CN1C(=O)Nc1ccc(Cl)c(Cl)c1` [Example 51, (4S,7S,9aR)-4-[3-((S)-4-Hydroxy-6-aza-spiro[2.5]oct-6-yl)-3-oxo-propyl]-7-methyl-6-oxo-hexahydro-pyrazino[2,1-c][1,4]oxazine-8-carboxylic acid (3,4-dichloro-phenyl)-amide], 0.0869 µM; to `C[C@H]1C(=O)N2[C@@H](CCC(=O)N3CCC4(CC4)[C@H](O)C3)COC[C@H]2CN1C(=O)Nc1ccc(C(F)(F)F)c(Cl)c1` [Example 52, (4S,7S,9aR)—N-(3-chloro-4-(trifluoromethyl)phenyl)-4-(3-((S)-4-hydroxy-6-azaspiro[2.5]octan-6-yl)-3-oxopropyl)-7-methyl-6-oxohexahydropyrazino[2,1-c][1,4]oxazine-8(1H)-carboxamide], 0.0147 µM.
`C[C@H]1C(=O)N2[C@@H](CCN3CCC4(CC4)C(F)(F)C3)COC[C@H]2CN1C(=O)Nc1ccc(Cl)c(Cl)c1` [Example 53, (4S,7S,9aR)—N-(3,4-dichlorophenyl)-4-(2-(4,4-difluoro-6-azaspiro[2.5]octan-6-yl)ethyl)-7-methyl-6-oxohexahydropyrazino[2,1-c][1,4]oxazine-8(1H)-carboxamide]: the IC50 came to 0.0167 µM.
As to `C[C@H]1C(=O)N2[C@@H](CCN3CCC4(CC4)C(F)(F)C3)COC[C@H]2CN1C(=O)Nc1cccc(Cl)c1` [Example 54, (4S,7S,9aR)—N-(3-chlorophenyl)-4-(2-(4,4-difluoro-6-azaspiro[2.5]octan-6-yl)ethyl)-7-methyl-6-oxohexahydropyrazino[2,1-c][1,4]oxazine-8(1H)-carboxamide], the IC50 was found to be 0.17 µM.
To `C[C@H]1C(=O)N2[C@@H](CCN3CCC4(CC4)C(F)(F)C3)COC[C@H]2CN1C(=O)Nc1ccc(C(F)(F)F)c(Cl)c1` [Example 55, (4S,7S,9aR)—N-(3-chloro-4-(trifluoromethyl)phenyl)-4-(2-(4,4-difluoro-6-azaspiro[2.5]octan-6-yl)ethyl)-7-methyl-6-oxohexahydropyrazino[2,1-c][1,4]oxazine-8(1H)-carboxamide] belongs 0.0343 µM; to `C[C@H]1C(=O)N2[C@@H](CCN3CCC(F)(F)CC3)COC[C@H]2CN1C(=O)Nc1ccc(Cl)c(Cl)c1` [Example 56, (4S,7S,9aR)—N-(3,4-dichlorophenyl)-4-(2-(4,4-difluoropiperidin-1-yl)ethyl)-7-methyl-6-oxohexahydropyrazino[2,1-c][1,4]oxazine-8(1H)-carboxamide], 0.081 µM.
Take `C[C@H]1C(=O)N2[C@@H](CCN3CCC(F)(F)CC3)COC[C@H]2CN1C(=O)Nc1ccc(C(F)(F)F)c(Cl)c1` [Example 57, (4S,7S,9aR)—N-(3-chloro-4-(trifluoromethyl)phenyl)-4-(2-(4,4-difluoropiperidin-1-yl)ethyl)-7-methyl-6-oxohexahydropyrazino[2,1-c][1,4]oxazine-8(1H)-carboxamide]: the IC50 stood at 0.119 µM.
To `C[C@H]1C(=O)N2[C@@H](CCN3CCS(=O)(=O)CC3)COC[C@H]2CN1C(=O)Nc1ccc(Cl)c(Cl)c1` [Example 58, (4S,7S,9aR)-4-[2-(1,1-Dioxo-thiomorpholin-4-yl)-ethyl]-7-methyl-6-oxo-hexahydro-pyrazino[2,1-c][1,4]oxazine-8-carboxylic acid (3,4-dichloro-phenyl)-amide] belongs 0.414 µM.
As to `C[C@H]1C(=O)N2[C@@H](CCN3CCS(=O)(=O)CC3)COC[C@H]2CN1C(=O)Nc1ccc(C(F)(F)F)c(Cl)c1` [Example 59, (4S,7S,9aR)-4-[2-(1,1-Dioxo-6-thiomorpholin-4-yl)-ethyl]-7-methyl-6-oxo-hexahydro-pyrazino[2,1-c][1,4]oxazine-8-carboxylic acid (3-chloro-4-trifluoromethyl-phenyl)-amide], the IC50 worked out at 0.189 µM.
With `C[C@H]1C(=O)N2[C@@H](CCCN3CCC4(CC4)C(F)(F)C3)COC[C@H]2CN1C(=O)Nc1ccc(Cl)c(Cl)c1` [Example 60, (4S,7S,9aR)—N-(3,4-dichlorophenyl)-4-(3-(4,4-difluoro-6-azaspiro[2.5]octan-6-yl)propyl)-7-methyl-6-oxohexahydropyrazino[2,1-c][1,4]oxazine-8(1H)-carboxamide], the IC50 was determined as 0.0482 µM.
Regarding `C[C@H]1C(=O)N2[C@@H](CCCN3CCC4(CC4)C(F)(F)C3)COC[C@H]2CN1C(=O)Nc1ccc(C(F)(F)F)c(Cl)c1` [Example 61, (4S,7S,9aR)—N-(3-chloro-4-(trifluoromethyl)phenyl)-4-(3-(4,4-difluoro-6-azaspiro[2.5]octan-6-yl)propyl)-7-methyl-6-oxohexahydropyrazino[2,1-c][1,4]oxazine-8(1H)-carboxamide], the IC50 was found to be 0.0341 µM.
To `C[C@H]1C(=O)N2[C@@H](CCC(=O)N3CCC4(CC4)[C@H](O)C3)CCC[C@H]2CN1C(=O)/C=C/c1ccc(F)c(Cl)c1` [Example 62, (3S,6R,9aS)-2-[(E)-3-(3-Chloro-4-fluoro-phenyl)-acryloyl]-6-[3-((S)-4-hydroxy-6-aza-spiro[2.5]oct-6-yl)-3-oxo-propyl]-3-methyl-octahydro-pyrido[1,2-a]pyrazin-4-one] belongs 0.221 µM.
As to `C[C@H]1C(=O)N2[C@@H](CCC(=O)N3CCC4(CC4)[C@H](O)C3)CCC[C@H]2CN1C(=O)Nc1ccc(Cl)c(Cl)c1` [Example 63, (3S,6R,9aS)-6-[3-((S)-4-Hydroxy-6-aza-spiro[2.5]oct-6-yl)-3-oxo-propyl]-3-methyl-4-oxo-octahydro-pyrido[1,2-a]pyrazine-2-carboxylic acid (3,4-dichloro-phenyl)-amide], the IC50 was found to be 0.0108 µM.
For `C[C@H]1C(=O)N2[C@@H](CCC(=O)N3CCC4(CC4)[C@H](O)C3)CCC[C@H]2CN1C(=O)Nc1ccc(C(F)(F)F)c(Cl)c1` [Example 64, (3S,6R,9aS)-6-[3-((S)-4-Hydroxy-6-aza-spiro[2.5]oct-6-yl)-3-oxo-propyl]-3-methyl-4-oxo-octahydro-pyrido[1,2-a]pyrazine-2-carboxylic acid (3-chloro-4-trifluoromethyl-phenyl)-amide], the IC50 is 0.0143 µM.

The values are drawn from patent US8471004B2, “Bicyclic compounds” (Hoffman-La Roche Inc., priority 2009, dated 2013).
